Holding throughout (assay): relative viability (nuclei count vs DMSO), 5 days (fraction); higher = more cells survive
Compound in test [1]: C1CC1C(=O)NC2=NNC3=C2C=CC(=C3)C4=CC(=CC=C4)C(=O)NC5CC5 [XMD13-2] + N=C(N)NC(=N)NCCc1ccccc1 [Phenformin] (partner 250 µM)
The gist of the method: (§1)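 Medians of duplicate plates are given as relative viability. That measure is the nuclei count in treated wells divided by the count in vehicle wells. Counts were taken on 4× images of lung cancer cell lines in 1536-well plates, 5 days after pin-tool dosing the day after seeding with one drug alone or a fixed anchor-drug dose plus five library-drug doses (not always all listed) in √10 steps.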

Compound in test [2]: C1CC1C(=O)NC2=NNC3=C2C=CC(=C3)C4=CC(=CC=C4)C(=O)NC5CC5 [XMD13-2] + Nc1ncn([C@H]2C[C@H](O)[C@@H](CO)O2)c(=O)n1 [Decitabine] (partner 2 µM)
The gist of the method:
as §1

Compound in test [3]: Cc1ccc(C(=O)Nc2cccc(C(F)(F)F)c2)cc1Nc1cncc(C(N)=O)c1 [ALW-II-49-7] + COc1cc2c(Oc3ccc(NC(=O)C4(C(=O)Nc5ccc(F)cc5)CC4)cc3F)ccnc2cc1OCCCN1CCOCC1 [Foretinib] (partner 0.25 µM)
The gist of the method: as §1

Compound in test [4]: Cc1nc(Nc2ncc(C(=O)Nc3c(C)cccc3Cl)s2)cc(N2CCN(CCO)CC2)n1 [Dasatinib] + O=C(c1cc(Cc2n[nH]c(=O)c3ccccc23)ccc1F)N1CCN(C(=O)C2CC2)CC1 [Olaparib] (partner 8 µM)
The essentials:
as §1

Consider UMC-11, for which the relative viability worked out at 0.362 in test [1] (first compound 0.05 µM); 0.314 in test [1] (first compound 0.1581 µM); 0.337 in test [1] (first compound 0.5 µM); 0.317 in test [1] (first compound 1.581 µM); 0.285 in test [1] (first compound 5 µM); 0.62 in test [2] (first compound 0.05 µM). The relative viability was determined as 0.585 in test [2] (first compound 0.1581 µM); 0.793 in test [2] (first compound 0.5 µM); 0.625 in test [2] (first compound 1.581 µM); 0.579 in test [2] (first compound 5 µM); 1.11 in test [3] (first compound 0.08 µM); 1.06 in test [3] (first compound 0.253 µM). The relative viability in test [3] (first compound 0.8 µM) came to 0.991; in test [3] (first compound 2.53 µM), 1.07; in test [3] (first compound 8 µM), 1.03; in test [4] (first compound 0.005 µM), 0.542; in test [4] (first compound 0.01581 µM) it was 0.377; in test [4] (first compound 0.05 µM), 0.427. For the same cell line, the relative viability stood at 0.272 in test [4] (first compound 0.1581 µM) and 0.247 in test [4] (first compound 0.5 µM).

Source of the values: the supplement of paper PMC10307832.
